One series concerns Aspergillus niger. Description: 95% growth inhibitory concentration, Aspergillus niger. The settings on record: IFO9455, 72 h, read-out: 95% Growth inhibitory concentration, Aspergillus niger. The format is cell-based, Aspergillus niger IFO 9455. Here is the method: (§1) Strains for use in test: Candida albicans, IFO 1594 Aspergillus niger, IFO 9455
(§2) Culture medium: Liquid Sabouraud's medium (maltose 40 g, proteose peptone 10 g, distilled water 1000 ml)
(§3) Positive control: amphotericin B (Sigma) 5-fluorocytosine (Wako Junyaku, Japan)
(§4) A sample was diluted with culture medium to vary concentrations and poured into test tubes each to contain 5 ml, and a platinum loop of spores was inoculated in each tube. After shaken cultivation at 37° C. for 3 days, formalin (0.5 ml) was added and well mixed. The mixture was centrifuged at 3500 rpm for 10 minutes to collect fungi, which were in turn dewatered on a filter paper, dried at 100° C. for one hour and weighed. The growth rate was determined by the following equation [formula] 95% growth-inhibitory concentration (up to 5% growth rate): a mean value of sample concentrations producing 95% growth inhibitory effects.

The test system of a further series is Candida albicans. Briefly: 95% growth inhibitory concentration, Candida albicans. The format is cell-based, Candida albicans IFO 1594. The settings on record: read-out: 95% Growth inhibitory concentration, Candida albicans. Here is the method: as §1, §2, §3
A culture resulting from shaken cultivation at 37° C. overnight was diluted 100-fold with the culture medium and used as seed culture.
A sample was diluted with the culture medium to vary concentrations and poured into test tubes each to contain 5 ml, and the seed culture (100 μl) was inoculated. After cultivation with shaking at 37° C. for 18 hours, formalin (0.5 ml) was added, thoroughly mixed, and diluted 10-fold with the culture medium. The resultant liquor was measured for absorbancy at 660 nm. The growth rate (%) was determined according to the equation [formula]
as §4

Another series relates to fungi. The conditions noted are these: Japanese Patent Publication No. 263121/1987; cited from earlier work.
The next series deals with platelet aggregation. The settings on record: literature; cited from earlier work.
The nature of series [1]: one week toxicity test, intraperitoneal. It is filed as in vivo. The conditions noted are these: 5 male ICR mice of 5 weeks age, dose not given.
The mark [2] stands for this setting: Aspergillus niger IFO 9455, liquid Sabouraud's medium, 37° C., 3 days, dry weight, up to 5% growth rate, mean value.
[3] abbreviates: IFO1594, Candida albicans IFO 1594, liquid Sabouraud's medium, 37° C., 18 hours, up to 5% growth rate, mean value.

The structures appear in SMILES notation. Values after ≈ are worked out from the molar mass of the structure shown. Where two headings read alike, the source gives them in different places.

Take `C=CCS(=O)(=O)CC=CSSCc1ccccc1` [Compound 16]: the IC95 in the series on Aspergillus niger (setting [2]) was 42.2 µg/mL (≈ 140 µM).

Take `Nc1nc(=O)[nH]cc1F` [5-fluorocytosine, reference compound]: the IC95 with Aspergillus niger (setting [2]) was determined as 80 µg/mL (≈ 620 µM); in the series on Candida albicans (setting [3]) it was 20 µg/mL (≈ 155 µM).

For `C=CCSSC=CC[S+]([O-])CC=C` (stereo not shown) [ajoene], in the series on fungi, the antifungal activity entry is recorded as “has antifungal activity”. Further, in the series on platelet aggregation, the “platelet aggregation inhibitory activity” value is recorded as “demonstrated to have platelet aggregation inhibitory activity”.

As for `C=CC[S+]([O-])SC=CCS(=O)(=O)CC=C` (stereo not shown) [Compound 7], the IC95 in the series with Aspergillus niger (setting [2]) amounted to 30.8 µg/mL (≈ 116 µM).

`C[C@@H]1[C@H](O)[C@@H](C)/C=C/C=C/C=C/C=C/C=C/C=C/C=C/[C@H](O[C@@H]2O[C@H](C)[C@@H](O)[C@H](N)[C@@H]2O)C[C@@H]2O[C@](O)(C[C@@H](O)C[C@@H](O)[C@H](O)CC[C@@H](O)C[C@@H](O)CC(=O)O[C@H]1C)C[C@H](O)[C@H]2C(=O)O` [Amphotericin B, reference compound]: the IC95 is > 0.8 µg/mL in the series on Aspergillus niger (Aspergillus niger) and 0.2 µg/mL (≈ 0.216 µM) in the series with Candida albicans (Candida albicans, IFO1594, 18 h).

On to `C=CCSSSC` [methylallyltrisulfide], for which the “platelet aggregation inhibitory activity” value with platelet aggregation is listed as “platelet aggregation inhibitory activity”.

On to `CCOC(=O)CCCSSC=CC[S+]([O-])CCCC(=O)OCC` (stereo not shown) [Compound 10], for which the IC95 in the series on Aspergillus niger (setting [2]) worked out at 80.4 µg/mL (≈ 210 µM).

For the compound `C=CCSSC=CC[S+](C)[O-]` (stereo not shown) [Compound 5], the IC95 with Aspergillus niger (setting [2]) amounted to 57.3 µg/mL (≈ 275 µM).

With `C=CC[S+]([O-])CC=CSSC` (stereo not shown) [Compound 17], the IC95 in the series with Aspergillus niger (setting [2]) was 49.1 µg/mL (≈ 236 µM); with Candida albicans (setting [3]), 40.7 µg/mL (≈ 195 µM).

Regarding `C=CCSSC=CCS(=O)(=O)CC=C` [Compound 1], the results for the IC95 in the series on Aspergillus niger (setting [2]) and with Candida albicans (setting [3]) were 28.5 µg/mL (≈ 114 µM) and 5.4 µg/mL (≈ 21.6 µM), respectively. For the same compound, the “mortality after one week” value in series [1] is “no mortality was observed”.

Values taken from patent US4876281A, “Antifungal agents” (Wakunaga Seiyaku Kabushiki Kaisha, priority 1986, dated 1989).
